Data: patent US12528814B2, “Bifunctional degraders of interleukin-1 receptor-associated kinases and therapeutic use thereof” (NURIX THERAPEUTICS, INC., priority 2020, dated 2026)
pIC50: −log10 of the molar value.

Legend:
IRAK4 [1] = biological target: T1, IRAK4 (Homo sapiens (Human), UniProt Q9NWZ3); assay: IRAK4 Biochemical HTRF Kinase Assay; settings: Table 5; multiple runs; read-out: IRAK4 HTRF biochemical: IC50
How it was run: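 IC50 values derive from non-linear regression of sixteen concentrations in duplicate. Kinase reaction ran 90 min at ambient temperature after adding 5 μM STK-S1 substrate, 10 mM ATP and 10 mM MgCl2 (reaction-solution levels, pre-dilution to 10 μl); phospho-peptide detected by HTRF after 60 min.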
Target sequence in this assay (Q9NWZ3 whole entry, species assumed): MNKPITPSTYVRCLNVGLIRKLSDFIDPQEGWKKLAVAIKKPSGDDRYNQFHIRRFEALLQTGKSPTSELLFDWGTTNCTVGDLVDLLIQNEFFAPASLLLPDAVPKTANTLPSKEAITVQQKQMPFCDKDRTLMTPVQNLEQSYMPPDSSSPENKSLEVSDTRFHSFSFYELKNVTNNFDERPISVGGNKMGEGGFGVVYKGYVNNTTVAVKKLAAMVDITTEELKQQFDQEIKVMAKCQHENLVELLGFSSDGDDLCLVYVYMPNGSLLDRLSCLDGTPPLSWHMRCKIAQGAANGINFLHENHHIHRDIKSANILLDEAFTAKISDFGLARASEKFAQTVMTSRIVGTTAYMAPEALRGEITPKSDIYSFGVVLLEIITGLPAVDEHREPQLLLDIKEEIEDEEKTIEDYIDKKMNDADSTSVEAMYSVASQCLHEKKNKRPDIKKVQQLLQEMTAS

IRAK4 [2] = biological target: T1, IRAK4; assay: IRAK4 Degradation HiBiT Assay; settings: multiple runs, HiBiT-tagged Jurkat cells, 4 hrs; for Dmax: Jurkat, read-out: Cellular IRAK4 HiBiT: Dmax, Table 5; for DC50: read-out: Cellular IRAK4 HiBiT: DC50, Table 5
Target sequence in this assay (Q9NWZ3 whole entry): as the sequence (Q9NWZ3 whole entry, species assumed) above

Structure (SMILES)	pIC50 (IRAK4 [1])	Dmax (IRAK4 [2]) [%]	DC50 (IRAK4 [2]) [nM]
CNc1cc(-c2ccc3cc(C#N)cnn23)ncc1-c1nnc(N2CC3CCC(C2)N3C2CCN(C(=O)c3ccc4c(c3)C(=O)N(C3CCC(=O)NC3=O)C4)CC2)s1 (stereo not drawn) [Example 162, 7-(5-(5-(8-(1-(2-(2,6-dioxopiperidin-3-yl)-3-oxoisoindoline-5-carbonyl)piperidin-4-yl)-3,8-diazabicyclo[3.2.1]octan-3-yl)-1,3,4-thiadiazol-2-yl)-4-(methylamino)pyridin-2-yl)pyrrolo[1,2-b]pyridazine-3-carbonitrile]	9.40	110	10.5
CNc1cc(-c2ccc3cc(C#N)cnn23)ncc1-c1nnc([C@H]2CC[C@H](N(C)C(=O)C[C@H](NC(=O)[C@@H]3C[C@@H](O)CN3C(=O)[C@@H](NC(=O)C3(F)CC3)C(C)(C)C)c3ccc(-c4scnc4C)cc3)CC2)s1 [Example 163, (2S,4R)—N—((S)-3-(((1r,4S)-4-(5-(6-(3-cyanopyrrolo[1,2-b]pyridazin-7-yl)-4-(methylamino)pyridin-3-yl)-1,3,4-thiadiazol-2-yl)cyclohexyl)(methyl)amino)-1-(4-(4-methylthiazol-5-yl)phenyl)-3-oxopropyl)-1-((S)-2-(1-fluorocyclopropane-1-carboxamido)-3,3-dimethylbutanoyl)-4-hydroxypyrrolidine-2-carboxamide]	9.00	113	65.9
CNc1cc(-c2ccc3cc(C#N)cnn23)ncc1-c1nnc(N2CC3CCC(C2)N3C2CCN(C(=O)Cc3ccc4c(c3)CN(C3CCC(=O)NC3=O)C4=O)CC2)s1 (stereo not drawn) [Example 164, 7-(5-(5-(8-(1-(2-(2-(2,6-dioxopiperidin-3-yl)-1-oxoisoindolin-5-yl)acetyl)piperidin-4-yl)-3,8-diazabicyclo[3.2.1]octan-3-yl)-1,3,4-thiadiazol-2-yl)-4-(methylamino)pyridin-2-yl)pyrrolo[1,2-b]pyridazine-3-carbonitrile]	9.40	109	5.64
CNc1cc(-c2ccc3cc(C#N)cnn23)ncc1-c1nnc(N2CC3CCC(C2)N3C2CCN(Cc3ccc4c(c3)C(=O)N(C3CCC(=O)NC3=O)C4=O)CC2)s1 (stereo not drawn) [Example 165, 7-(5-(5-(8-(1-((2-(2,6-dioxopiperidin-3-yl)-1,3-dioxoisoindolin-5-yl)methyl)piperidin-4-yl)-3,8-diazabicyclo[3.2.1]octan-3-yl)-1,3,4-thiadiazol-2-yl)-4-(methylamino)pyridin-2-yl)pyrrolo[1,2-b]pyridazine-3-carbonitrile]	9.40	100	21
CNc1cc(-c2ccc3cc(C#N)cnn23)ncc1-c1nnc(N2CC3CCC(C2)N3C2CCN(C(=O)C[C@H](NC(=O)[C@@H]3C[C@@H](O)CN3C(=O)[C@@H](NC(=O)C3(F)CC3)C(C)(C)C)c3ccc(-c4scnc4C)cc3)CC2)s1 [Example 166, (2S,4R)—N-((1S)-3-(4-(3-(5-(6-(3-cyanopyrrolo[1,2-b]pyridazin-7-yl)-4-(methylamino)pyridin-3-yl)-1,3,4-thiadiazol-2-yl)-3,8-diazabicyclo[3.2.1]octan-8-yl)piperidin-1-yl)-1-(4-(4-methylthiazol-5-yl)phenyl)-3-oxopropyl)-1-((S)-2-(1-fluorocyclopropane-1-carboxamido)-3,3-dimethylbutanoyl)-4-hydroxypyrrolidine-2-carboxamide]	9.00	114	67.7
CNc1cc(-c2ccc3cc(C#N)cnn23)ncc1-c1nnc([C@H]2CC[C@H](N(C)CC3CCN(c4ccc(C(=O)NC5CCC(=O)NC5=O)nc4)CC3)CC2)s1 (stereo partly drawn) [Example 167, 5-(4-((((1r,4r)-4-(5-(6-(3-cyanopyrrolo[1,2-b]pyridazin-7-yl)-4-(methylamino)pyridin-3-yl)-1,3,4-thiadiazol-2-yl)cyclohexyl)(methyl)amino)methyl)piperidin-1-yl)-N-(2,6-dioxopiperidin-3-yl)picolinamide]	9.30	107	20.1
